Test results taken from US9556235B2, “F11 receptor (F11R) antagonists as therapeutic agents” (The Research Foundation for The State University of New York, priority 2003, dated 2017).
Entries after “also recorded” stand apart in the source; their conditions may differ.

Legend:
human platelets [1] = assay: Potentiation by M.Ab.F11 of collagen-induced platelet aggregation; type: cell-based
Experimental: (§1) Whole blood was collected into the anticoagulant ACD (pH 4.6), as detailed (Kornecki et al. (1990) J. Biol. Chem., 265:10042-10048, incorporated herein by reference). Platelets were washed and isolated by differential centrifugation, and resuspended in a Tyrode-albumin (0.35%) solution buffered with 11.9 mM sodium bicarbonate (pH 7.35) in the presence of apyrase, heparin, and PGE1 (Id.). […] Platelet aggregation was measured in a Chronolog Whole Blood Lumi-Aggregometer (Chronolog Corp. Havertown, Pa.). […] The lowest concentration of each agonist which caused platelet aggregation was determined in these experiments for each donor on the day of blood collection.
However, the addition of sub-threshold amounts of collagen and M.Ab.F11 triggered a full-blown platelet aggregation.

platelets = assay: Platelet adhesion to immobilized M.Ab.F11 (BCA protein assay); type: cell-based, human; settings: for inhibition of the adhesion of platelets to immobilized M.Ab.F11: M.Ab.F11 150 ng/well; for inhibition in platelet adhesion assay (immobilized M.Ab.F11): FIG. 3 legend, concentration not given
Experimental: An adhesion assay, based on the determination of cell-derived protein using Bicinchoninic Acid (BCA) protein assay (Tuszynski et al. (1990) Anal. Biochem 184:189-191, incorporated herein by reference), was used for platelet adhesion to immobilized M.Ab.F11. Wells of a 96-well plate (Nunc-Immuno™ Plate, MaxiSorp™ Surface, flat bottomed) were incubated overnight at 4° C. with […] of a 1 mg/ml solution of M.Ab.F11. Wells were aspirated, washed, treated with TBS/1% BSA for 1 h at 37° C., and washed with TBS/0.1 mM MnCl2/0.1 mM CaCl2. Isolated platelet suspensions (100 μl) (3×10^8/ml) were added and plates were incubated at 37° C. for 90 min. Total platelet-associated protein was determined by dissolving the attached platelets directly with 100 μl BCA. Platelets were incubated at 37° C. for 2 h, and absorbance (595 nm) determined (Dynatech Laboratories, Chantilly, Va.).
The five peptides with sequences shown in Table 1 were tested also for their effects on the adhesion of platelets to immobilized M.Ab.F11 (applied at a concentration of 150 ng/well). […] Peptide 1 (SEQ ID NO: 1), added at 50 μM caused about 60% inhibition of the adhesion of platelets to immobilized M.Ab.F11, and with 500 μM of peptide 1 (SEQ ID NO: 1), about 70% inhibition was observed. Peptide 4 (SEQ ID NO: 4), at 50 μM, produced very little (10%) inhibition compared to peptide 1 (SEQ ID NO: 1) at similar concentrations. However, 500 μM of peptide 4 (SEQ ID NO: 4) produced approximately 70% inhibition in the adhesion of platelets to M.Ab.F11, similar to that observed with peptide 1 (SEQ ID NO: 1) at the same concentration.

human platelets [2] = assay: Potentiation by M.Ab.F11 of ADP-induced platelet aggregation (sub-threshold M.Ab.F11 plus ADP); type: cell-based; settings: for inhibition of M.Ab.F11 plus ADP-induced platelet aggregation: M.Ab.F11 0.3 μg/ml, ADP 0.5 μM
Experimental: as §1
Synthetic peptides according to published sequences of F11R were prepared.

apoE KO mice = assay: Plaque formation in animal model of atherosclerosis (apoE KO mice); type: in vivo; settings: for physical appearance of the animals (secondary consequences of atherosclerosis): 5 month period, Western-type diet, FIG. 7
Experimental: The results of an in-vivo study of the effects of F11R peptide 4D on plaque formation in an animal model of atherosclerosis (apoE knockout/KO mice) are discussed below. The atherosclerosis-prone apoE KO is a strain of mice that has been genetically engineered to develop cardiovascular disease. This genetic abnormality is manifested by the continuous development of atherosclerotic plaques from early age to adulthood, accompanied by deteriorating, sickly appearance.
The study was conducted on atherosclerosis prone apoE deficient (knock-out female mice of 6 weeks of age) of a C57BL/6 background. The mice were obtained from the Jackson Laboratory (Bar Harbor, Me.). Seven animals were injected daily with peptide 4D. In parallel, control groups, consisting of animals injected with water, the vehicle used to deliver peptide 4D, was maintained. All mice were fed a Western-type diet.
At pre-determined intervals of 3, 4 and 5 months of treatment, the aortae were dissected. Following the dissection of the aortae of all mice, morphometric analyses of lesion areas was performed on aortic arch sections stained with Harris hematoxylin-eosin. The total intimal lesion areas were quantified by taking the average of 6 sections spaced 30 μm apart, beginning at the base of the aortic root of each animal. Images were viewed and captured with a microscope (Nikon) equipped with a color video camera (Motic Images Plus 2.0) attached to a computerized imaging system with Image-J.
En face assays (to visualize the entire aorta) were conducted for comparison of the size and number of atherosclerotic plaques in treated and untreated animals using an Oil red O staining procedure, as shown in FIG. 9. […] FIG. 9B illustrates the differences in the number and size of plaques in animals following a 4-month period of injection with peptide 4D, comparing animals “P4, P5” treated with peptide 4D versus controls “H3, H4, H5”.
The proximal aortae of treated an untreated groups were also assessed by hematoxylin-eosin staining of the proximal aorta (root assay) for the size of the lesions/plaques and the necrotic core area within the proximal aorta. FIG. 10A illustrates the plaques and the size of the necrotic core area of animals treated or not treated with peptide 4D for a 3 month period.

human platelets [3] = assay: M.Ab.F11-induced platelet aggregation; type: cell-based; settings: sF11R 1 μg/ml; M.Ab.F11 2.45 μg/ml; FIG. 1A
Experimental: as §1
The soluble polypeptide sF11R was tested in the platelet aggregation assay to determine its effect on the rate and extent of platelet aggregation.
The F11R/JAM-A receptor is constitutively expressed on the surface membrane of human platelets. Studies were carried out testing the effects of Fab fragments prepared from M.Ab.F11, i.e., on the M.Ab.F11-induced platelet aggregation that is triggered by M.Ab.F11 binding to F11R. It was determined that these Fab fragments interfered with the ability of the intact M.Ab.F11 antibody to activate platelets through the constitutively-expressed F11R.
As shown below, platelet aggregation was assayed in the presence of either 0.1 μg/ml (FIG. 4a), or 1.0 μg/ml (FIG. 4b). […]

[4] = collagen 0.5 μg/ml (sub-threshold), peptide concentration not given
[5] = peptide approximately 50-500 μM

EQDGSPPSEYTWFKD [peptide 5, F11R amino acids 128-142, control peptide]
block of potentiation by M.Ab.F11 of collagen-induced platelet aggregation (human platelets [1]; [4]): did not inhibit platelet aggregation | inhibition of the adhesion of platelets to immobilized M.Ab.F11 (platelets; peptide 500 μM): did not cause significant inhibition | inhibition of M.Ab.F11 plus ADP-induced platelet aggregation (human platelets [2]; [5]): no inhibitory effects | inhibition of M.Ab.F11 plus ADP-induced platelet aggregation (human platelets [2]; peptide approximately 50-500 μM, listed as SEQ ID NO: 5): do not inhibit aggregation

KSVTREDTGTYTC [peptide 4]
block of potentiation by M.Ab.F11 of collagen-induced platelet aggregation (human platelets [1]; [4]): completely blocked | inhibition in platelet adhesion assay (immobilized M.Ab.F11) (platelets): inhibition | inhibition of the adhesion of platelets to immobilized M.Ab.F11 (platelets; peptide 50 μM): 10% | inhibition of the adhesion of platelets to immobilized M.Ab.F11 (platelets; peptide 500 μM): about 70% | inhibition of M.Ab.F11 plus ADP-induced platelet aggregation (human platelets [2]; peptide approximately 50 μM): completely block | inhibition of M.Ab.F11 plus ADP-induced platelet aggregation (human platelets [2]; peptide approximately 50 μM, listed as Peptide 4): completely inhibited aggregation

SVTVHSSEPEVRIPENNPVKLSC [peptide 1, N-terminal peptide of F11R, amino acids 1-23]
block of potentiation by M.Ab.F11 of collagen-induced platelet aggregation (human platelets [1]; [4]): completely blocked | inhibition in platelet adhesion assay (immobilized M.Ab.F11) (platelets): inhibition | inhibition of the adhesion of platelets to immobilized M.Ab.F11 (platelets; peptide 50 μM): about 60% | inhibition of the adhesion of platelets to immobilized M.Ab.F11 (platelets; peptide 500 μM): about 70% | inhibition of M.Ab.F11 plus ADP-induced platelet aggregation (human platelets [2]; peptide approximately 50 μM): completely inhibited | inhibition of M.Ab.F11 plus ADP-induced platelet aggregation (human platelets [2]; peptide approximately 50 μM, listed as Peptide 1): completely inhibited platelet aggregation | persistence of inhibition of M.Ab.F11 plus ADP-induced platelet aggregation (human platelets [2]; peptide approximately 50 μM, examined after a 12 h period): aggregation did not ensue

SYEDRVTFLPTGITFKSVTRED [peptide 2, F11R amino acids 55-76, control peptide]
inhibition of the adhesion of platelets to immobilized M.Ab.F11 (platelets; peptide 500 μM): did not cause significant inhibition | inhibition of M.Ab.F11 plus ADP-induced platelet aggregation (human platelets [2]; [5]): no inhibitory effects | inhibition of M.Ab.F11 plus ADP-induced platelet aggregation (human platelets [2]; peptide approximately 50-500 μM, listed as SEQ ID NO: 2): do not inhibit aggregation

WKFDQGDTTRLVEYNNKITASY [peptide 3, F11R amino acids 35-56, control peptide]
block of potentiation by M.Ab.F11 of collagen-induced platelet aggregation (human platelets [1]; [4]): did not inhibit platelet aggregation | inhibition of the adhesion of platelets to immobilized M.Ab.F11 (platelets; peptide 500 μM): did not cause significant inhibition | inhibition of M.Ab.F11 plus ADP-induced platelet aggregation (human platelets [2]; [5]): no inhibitory effects | inhibition of M.Ab.F11 plus ADP-induced platelet aggregation (human platelets [2]; peptide approximately 50-500 μM, listed as SEQ ID NO: 3): do not inhibit aggregation

dKSVTdREDTGTYTC-CONH2 [peptide 4D]
size of the atherosclerotic plaques, en face assay (entire aorta, Oil red O) (apoE KO mice; 3, 4 and 5 month period of injection, FIG. 9D): decrease in the size of the atherosclerotic plaques | size of the plaque/lesion areas, proximal aorta (apoE KO mice; 3, 4 and 5 months of injections): significant decreases | size of the necrosis core area (NE) within the lesion (apoE KO mice; 3 month period of injection, FIG. 10C): significant decrease | physical appearance of the animals (secondary consequences of atherosclerosis) (apoE KO mice; apoE KO mice, daily injection): prevented the degeneration of the animal's appearance | physical appearance of the animals (secondary consequences of atherosclerosis) (apoE KO mice; apoE KO mice, daily injection, listed as F11R peptide 4D): diminishes the secondary consequences | loss of hair, itching/scratching and lesions on the skin (apoE KO mice; apoE KO mice, daily injection, FIG. 7C-F): not observed | rate and extent of atherosclerotic plaque formation in major arterial blood vessels (apoE KO mice; apoE KO mice, summary of FIGS. 8-10): significantly decreases | size of atherosclerotic plaques in the aortic arch (apoE KO mice; three, four and five months of injection, hematoxylin-eosin sections, FIG. 8): beneficial effects | size of the lesion area, proximal aorta (root assay) (apoE KO mice; treated for 3 months, *P<0.05, FIG. 10B): significant decrease

B1: sF11R: secreted recombinant F11R, extracellular portion (amino acids ser-1 to asn-208), His tag, from COS-7 cells (protein)
chain: SVTVHSSEPEVRIPENNPVKLSCAYSGFSSPRVEWKFDQGDTTRLVCYNNKITASYEDRVTFLPTGITFKSVTREDTGTYTCMVSEEGGNSYGEVKVKLIVLVPPSKPTVNIPSSATIGNRAVLTCSEQDGSPPSEYTWFKDGIVMPTNPKSTRAFSNSSYVLNPTTGELVFDPLSASDTGEYSCEARNGYGTPMTSNAVRMEAVERN
modifications: left off: small tags and cut ends
notes: secreted recombinant F11R, extracellular portion (amino acids ser-1 to asn-208), His tag, from COS-7 cells
block of potentiation by M.Ab.F11 of collagen-induced platelet aggregation (human platelets [1]; sF11R 1 μg/ml): completely blocked | inhibition of M.Ab.F11-induced platelet aggregation (human platelets [3]): effectively inhibited; also recorded: Inhibition | block of potentiation by M.Ab.F11 of ADP-induced platelet aggregation (human platelets [2]; sF11R 1 μg/ml): completely blocked
